Activity calls are given as the source filed them. The rule behind the calls is not given here.
How the values were obtained:
[1] = test system: RAW264.7; test: Induction of phagocytosis in zymosan A stimulated mouse RAW264.7 cells assessed as upregulation of CD204 protein level at 5.0 uM incubated for 12 hrs by flow cytometric analysis; format: functional, cell-based
[2] = test system: RAW264.7; test: Induction of phagocytosis in mouse RAW264.7 cells at 5 uM incubated for 12 hrs by flow cytometric analysis; format: functional, cell-based
[3] = Toxicity in male C57BL/6 mouse assessed as effect on creatinine level in serum up to 100 mg/kg, ip measured after 12 hrs; format: organism-based; settings: in vivo
[4] = test system: Staphylococcus aureus; test: Antibacterial activity against methicillin-resistant Staphylococcus aureus infected in C57BL/6 mouse model assessed as reduction in liver damage at 25 mg/kg, ip administered for 12 hrs by H and E staining based analysis; format: functional, organism-based
[5] = test system: RAW264.7; test: Induction of phagocytosis in zymosan A stimulated mouse RAW264.7 cells assessed as upregulation of CD32 mRNA expression at 5.0 uM incubated for 12 hrs by qRT-PCR analysis; format: functional, cell-based
[6] = target: T1, CYP1A1 (Homo sapiens, UniProt P04798); test: Inhibition of CYP1A1 in human Caco-2 cells assessed as relative activity by measuring fold change at 500 nM incubated for 12 hrs by EROD assay relative to control; format: cell-based; settings: read-out: FC
T1 sequence (P04798 whole entry): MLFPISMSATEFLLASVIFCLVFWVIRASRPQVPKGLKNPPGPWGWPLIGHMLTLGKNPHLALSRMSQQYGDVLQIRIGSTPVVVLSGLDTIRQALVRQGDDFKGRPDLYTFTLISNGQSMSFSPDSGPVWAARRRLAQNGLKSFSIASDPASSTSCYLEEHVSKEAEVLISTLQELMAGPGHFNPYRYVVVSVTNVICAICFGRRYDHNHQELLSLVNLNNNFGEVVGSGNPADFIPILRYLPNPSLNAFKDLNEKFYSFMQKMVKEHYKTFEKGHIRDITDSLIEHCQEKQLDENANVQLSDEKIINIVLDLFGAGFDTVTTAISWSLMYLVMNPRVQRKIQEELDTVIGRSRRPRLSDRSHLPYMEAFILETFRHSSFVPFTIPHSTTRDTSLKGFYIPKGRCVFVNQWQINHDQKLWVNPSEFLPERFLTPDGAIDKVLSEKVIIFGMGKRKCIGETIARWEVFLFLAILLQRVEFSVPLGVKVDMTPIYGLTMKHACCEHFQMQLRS

[7] = Toxicity in male C57BL/6 mouse assessed as change in fur condition at 1 to 100 mg/kg, ip measured after 7 days; format: organism-based; settings: in vivo, 168 h, dose 1-100 mg/kg, time 7 day
[8] = test system: Pseudomonas aeruginosa; test: Antibacterial activity against Pseudomonas aeruginosa infected in C57BL/6 mouse assessed as increase in survival at 25 mg/kg, ip pretreated for 12 hrs followed by bacterial infection and measured after 60 hrs by Kaplan Meier survival analysis; format: functional, organism-based; settings: time 72.0 hrs
[9] = test system: Staphylococcus aureus; test: Antibacterial activity against methicillin-resistant Staphylococcus aureus infected in C57BL/6 mouse model assessed as reduction in bacterial dissemination from PLF to liver at 25 mg/kg, ip preadministered for 12 hrs followed by bacterial infection and measured after 24 hrs; format: functional, organism-based; settings: time 36.0 hrs
[10] = test system: RAW264.7; test: Induction of phagocytosis in zymosan A stimulated mouse RAW264.7 cells assessed as upregulation of CD68 protein level at 5.0 uM incubated for 12 hrs by flow cytometric analysis; format: functional, cell-based
[11] = test system: Staphylococcus aureus; test: Antibacterial activity against methicillin-resistant Staphylococcus aureus infected in C57BL/6 mouse model assessed as reduction in bacterial dissemination from PLF to blood at 25 mg/kg, ip preadministered for 12 hrs followed by bacterial infection and measured after 24 hrs; format: functional, organism-based; settings: time 36.0 hrs
[12] = target: T2, CYP1A1 (Mus musculus, UniProt P00184); test: Inhibition of CYP1A1 in mouse RAW264.7 cells assessed as relative activity by measuring fold change at 500 nM incubated for 12 hrs by EROD assay relative to control; format: cell-based; settings: read-out: FC
T2 sequence (P00184 whole entry): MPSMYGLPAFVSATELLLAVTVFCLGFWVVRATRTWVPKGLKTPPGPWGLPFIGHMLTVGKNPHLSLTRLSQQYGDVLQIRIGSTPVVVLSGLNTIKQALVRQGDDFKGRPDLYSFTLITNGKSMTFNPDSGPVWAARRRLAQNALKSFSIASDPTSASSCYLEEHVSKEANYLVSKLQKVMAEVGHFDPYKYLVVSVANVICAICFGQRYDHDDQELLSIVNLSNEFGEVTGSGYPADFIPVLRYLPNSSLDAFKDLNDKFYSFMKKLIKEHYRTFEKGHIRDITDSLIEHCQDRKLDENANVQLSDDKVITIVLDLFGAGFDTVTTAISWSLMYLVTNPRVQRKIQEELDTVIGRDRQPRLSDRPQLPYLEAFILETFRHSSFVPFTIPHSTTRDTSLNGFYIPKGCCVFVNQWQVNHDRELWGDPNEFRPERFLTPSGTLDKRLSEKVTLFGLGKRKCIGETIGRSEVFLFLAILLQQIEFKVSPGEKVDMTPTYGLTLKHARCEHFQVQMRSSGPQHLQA

[13] = test system: RAW264.7; test: Induction of phagocytosis in mouse RAW264.7 cells assessed as upregulation of CD32 mRNA expression by qRT-PCR analysis; format: functional, cell-based
[14] = Toxicity in male C57BL/6 mouse assessed as effect on alanine transaminase (ALT) level in serum up to 100 mg/kg, ip measured after 12 hrs; format: organism-based; settings: in vivo
[15] = test system: RAW264.7; test: Induction of phagocytosis in mouse RAW264.7 cells assessed as upregulation of CD204 protein level by flow cytometric analysis; format: functional, cell-based
[16] = test system: Staphylococcus aureus; test: Antibacterial activity against methicillin-resistant Staphylococcus aureus infected in macrophage-depleted mouse assessed as bacterial clearance in PLF at 25 mg/kg, ip pretreated with clodronate liposomes for 48 hrs followed by compound administration for 12 hrs and measured after 24 hrs of bacterial infection; format: functional, organism-based; settings: time 36.0 hrs
[17] = test system: Acinetobacter baumannii; test: Antibacterial activity against Acinetobacter baumannii infected in C57BL/6 mouse assessed as increase in survival at 25 mg/kg, ip preadministered for 12 hrs followed by bacterial infection and measured after 60 hrs by Kaplan Meier survival analysis; format: functional, organism-based; settings: time 72.0 hrs
[18] = test system: RAW264.7; test: Induction of phagocytosis in mouse RAW264.7 cells assessed as upregulation of SR-A1 mRNA expression by qRT-PCR analysis; format: functional, cell-based
[19] = test system: Staphylococcus aureus; test: Antibacterial activity against methicillin-resistant Staphylococcus aureus infected in C57BL/6 mouse assessed as reduction in kidney damage at 25 mg/kg, ip administered for 12 hrs by H and E staining based analysis; format: functional, organism-based
[20] = test system: Acinetobacter baumannii; test: Antibacterial activity against Acinetobacter baumannii assessed as inhibition of bacterial growth at 0.02 to 2.5 mg/ml; format: functional, organism-based; settings: dose 0.02-2.5 mg/ml
[21] = test system: RAW264.7; test: Induction of phagocytosis in mouse RAW264.7 cells assessed as upregulation of CD68 protein level by flow cytometric analysis; format: functional, cell-based
[22] = test system: Staphylococcus aureus; test: Antibacterial activity against methicillin-resistant Staphylococcus aureus infected in CYP1A1 knockout mouse model assessed as increase in survival rate at 25 mg/kg, ip pretreated for 12 hrs followed by bacterial infection and measured after 60 hrs by Kaplan Meier survival analysis; format: functional, organism-based; settings: time 72.0 hrs
[23] = test system: Staphylococcus aureus; test: Antibacterial activity against methicillin-resistant Staphylococcus aureus assessed as inhibition of bacterial growth at 0.02 to 2.5 mg/ml; format: functional, organism-based; settings: dose 0.02-2.5 mg/ml
[24] = target: T1, CYP1A1; test: Inhibition of CYP1A1 in human Caco-2 cells at 500 nM incubated for 12 hrs by EROD assay relative to control; format: cell-based

Row | Compound | Activity [1] | Activity [2] | Activity [3] | Activity [4] | Activity [5] | fold induction at 12 h, 0.5 µM [6] | Activity [7] | Activity [8] | Activity [9] | Activity [10] | Activity [11] | fold induction at 12 h, 0.5 µM [12] | Activity [13] | Activity [14] | Activity [15] | Activity [16] | Activity [17] | Activity [18] | Activity [19] | Activity [20] | also measured
1 | Cn1cc(/C=C/C(=O)c2ccc3c(c2)n(C)c(=O)n3C)c2ccccc21 | Active | Active | Non-toxic | Active | Active | 0.25 | Non-toxic | Active | Active | Active | Active | 0.72 | Active | Non-toxic | Active | inactive | Active | Active | Active | Active | Activity [21]: Active; Activity [22]: inactive; Activity [23]: Active
2 | C#Cc1ccccc1/C=C/C(=O)c1ccc2c(c1)n(C)c(=O)n2C | Active | Active | Non-toxic | Active | Active | 0.06 | Non-toxic | Active | Active | Active | Active | 0.07 | Active | Non-toxic | Active | inactive | Active | Active | Active | Active | inhibition at 12 h, 0.5 µM [24]: < 10%; Activity [21]: Active; Activity [22]: inactive; Activity [23]: Active
